Series [1] can be described thus: Toxicity inArtemia salina (brine shrimp) larvae assessed as mortality after 24 hr. The following applies: artemia salina, in vivo; read-out: LD50. The class given is organism-based.
For series [2], the species on record is Homo sapiens. Nature of the series: Inhibition of […] urease using urea as substrate at 0.1 uM preincubated for 5 min before substrate addition measured after 10 min relative to control.
The test system of series [3] is Lemna aequinoctialis. Briefly: Phytotoxicity against Lemna aequinoctialis assessed as growth inhibition at 50 ug/ml. The series is classed as functional. The following applies: read-out: GI.
A further series deals with Candida albicans. Briefly: Antifungal activity against Candida albicans at 200 ug/ml after 7 days. The note with it: 168 h. The series is classed as functional.
The subject of the next series is Fusarium solani. Briefly: Antifungal activity against Fusarium solani at 200 ug/ml after 7 days. The class given is functional. The following applies: 168 h.
In another series the test system is Nakaseomyces glabratus. Nature of the series: Antifungal activity against Candida glabrata at 200 ug/ml after 7 days. The series is classed as functional. The note with it: 168 h.
Series [4] relates to Lemna aequinoctialis. Nature of the series: Phytotoxicity against Lemna aequinoctialis assessed as growth inhibition at 5 ug/ml. The class given is functional. The note with it: read-out: GI.
The next series relates to Microsporum canis. Nature of the series: Antifungal activity against Arthroderma otae at 200 ug/ml after 7 days. The class given is functional. The following applies: 168 h.
The species named for series [5] is Homo sapiens. Briefly: Inhibition of […] urease using urea as substrate at 1 uM preincubated for 5 min before substrate addition measured after 10 min relative to control.
The species entered for series [6] is Homo sapiens. Briefly: Inhibition of […] urease using urea as substrate at 100 uM preincubated for 5 min before substrate addition measured after 10 min relative to control.
The species entered for series [7] is Homo sapiens. Briefly: Inhibition of […] urease using urea as substrate at 0.01 uM preincubated for 5 min before substrate addition measured after 10 min relative to control.
The test system of series [8] is Lemna aequinoctialis. Nature of the series: Phytotoxicity against Lemna aequinoctialis assessed as growth inhibition at 500 ug/ml. The class given is functional. The following applies: read-out: GI.
The species entered for series [9] is Homo sapiens. Nature of the series: Inhibition of […] urease using urea as substrate at 10 uM preincubated for 5 min before substrate addition measured after 10 min relative to control.
A further series concerns Aspergillus flavus. Nature of the series: Antifungal activity against Aspergillus flavus at 200 ug/ml after 7 days. The following applies: 168 h. The series is classed as functional.
The subject of series [10] is Lemna aequinoctialis. Nature of the series: Phytotoxicity against Lemna aequinoctialis assessed as growth inhibition at 0.015 ug/ml. The following applies: read-out: GI. The class given is functional.
Series [11] deals with Lemna aequinoctialis. Nature of the series: Phytotoxicity against Lemna aequinoctialis assessed as growth inhibition at 100 ug/ml. The series is classed as functional. The note with it: read-out: GI.
The subject of series [12] is Lemna aequinoctialis. Briefly: Phytotoxicity against Lemna aequinoctialis assessed as growth inhibition at 10 ug/ml. The class given is functional. The following applies: read-out: GI.
Series [13] relates to Lemna aequinoctialis. Briefly: Phytotoxicity against Lemna aequinoctialis assessed as growth inhibition at 1000 ug/ml. The series is classed as functional. The following applies: read-out: GI.
Series [14] can be described thus: Inhibition of […] urease using urea as substrate preincubated for 5 min before substrate addition measured after 10 min.
The species named for series [15] is Homo sapiens. Briefly: Increase of […] urease using urea as substrate at 0.1 uM preincubated for 5 min before substrate addition measured after 10 min relative to control.
The species entered for series [16] is Homo sapiens. Nature of the series: Increase of […] urease using urea as substrate at 100 uM preincubated for 5 min before substrate addition measured after 10 min relative to control.
For series [17], the species on record is Homo sapiens. Nature of the series: Increase of […] urease using urea as substrate at 0.01 uM preincubated for 5 min before substrate addition measured after 10 min relative to control.
The species entered for series [18] is Homo sapiens. Nature of the series: Increase of […] urease using urea as substrate at 10 uM preincubated for 5 min before substrate addition measured after 10 min relative to control.
The species entered for series [19] is Homo sapiens. Briefly: Increase of […] urease using urea as substrate at 1 uM preincubated for 5 min before substrate addition measured after 10 min relative to control.

Data on four molecules can be found in ChEMBL document CHEMBL3045203, “Synthesis and biological evaluation of some N4-substituted 5-nitroisatin-3-thiosemicarbazones” (Med Chem Res, 2012).

pIC50: −log10 of the molar value. Active and inactive are the calls of the source. No cut-off for these calls is given here. Some results are limits rather than exact numbers.

A word on the inhibition: it is how much of the control response was suppressed. The term pIC50 denotes the negative decadic logarithm of the IC50, by convention in mol/L. Lower therefore signals a large IC50.

As for `O=C1Nc2ccc([N+](=O)[O-])cc2/C1=N/NC(=S)Nc1ccccc1`, in series [1], the LC50 at 24 h was greater than 1470 µM. Further, the inhibition was found to be 5.8% in the series listed under Homo sapiens [2], 0.65% in the series listed under Homo sapiens [5], 6% in the series listed under Homo sapiens [6] and 8.8% in the series filed under Homo sapiens [7]. Moreover, in the series with Lemna aequinoctialis [3], the inhibition of growth at 50 µg/mL worked out at 10%. Moreover, the inhibition at 200 µg/mL in the series with Candida albicans is 0%; with Fusarium solani it was 0%; in the series with Nakaseomyces glabratus, 0%; in the series with Microsporum canis it was 0%; with Aspergillus flavus it was 20%. For the same molecule, in the series with Lemna aequinoctialis [4], the inhibition of growth at 5 µg/mL was 5%. Moreover, the inhibition of growth at 500 µg/mL in the series on Lemna aequinoctialis [8] was found to be 20%. In addition, the inhibition result in the series listed under Homo sapiens [9] was “inactive”.

Turning to `C[n+]1ccc(-c2cc[n+](C)cc2)cc1` [PARAQUAT], the inhibition of growth at 0.015 µg/mL in the series on Lemna aequinoctialis [10] worked out at 100%.

As to `CCCCCCNC(=S)N/N=C1\C(=O)Nc2ccc([N+](=O)[O-])cc21`, in series [1], the LC50 at 24 h is greater than 1430 µM. Also, the inhibition was found to be 58% in the series filed under Homo sapiens [2]; 37% in the series listed under Homo sapiens [5]; 40.9% in the series filed under Homo sapiens [6]; 60% in the series filed under Homo sapiens [7]; 27% in the series listed under Homo sapiens [9]. Besides, the inhibition at 200 µg/mL in the series on Candida albicans is 0%; with Fusarium solani it was 0%; in the series on Nakaseomyces glabratus it was 0%; in the series with Microsporum canis, 50%; in the series on Aspergillus flavus, 0%. In the series with Lemna aequinoctialis [11], the inhibition of growth at 100 µg/mL came out at 35%. For the same molecule, the inhibition of growth at 10 µg/mL with Lemna aequinoctialis [12] worked out at 25%. Also, the inhibition of growth at 1000 µg/mL with Lemna aequinoctialis [13] worked out at 60%. This molecule also had a pIC50 in series [14] of 6.36.

As to `O=C1Nc2ccc([N+](=O)[O-])cc2/C1=N/NC(=S)Nc1ccc(F)cc1`, the LC50 at 24 h in [1] was greater than 1390 µM. Moreover, the inhibition at 200 µg/mL in the series with Candida albicans was found to be 0%; in the series on Fusarium solani it was 20%; in the series on Nakaseomyces glabratus it was 0%; in the series on Microsporum canis it was 20%; in the series on Aspergillus flavus, 0%. Also, the inhibition of growth at 100 µg/mL in the series with Lemna aequinoctialis [11] was 15%. Besides, the result in the series listed under Homo sapiens [15], in the series filed under Homo sapiens [16], in the series listed under Homo sapiens [17], in the series filed under Homo sapiens [18] and in the series filed under Homo sapiens [19] was inactive. Also, the inhibition of growth at 10 µg/mL with Lemna aequinoctialis [12] amounted to 5%. Also, in the series on Lemna aequinoctialis [13], the inhibition of growth at 1000 µg/mL is 20%.
